Reference: patent US4044137A, “2-(Phenylthiopropyl)-5-aryl-1,2,3,4-tetrahydro-γ-carbolines” (Pfizer Inc., priority 1976, dated 1977)
Structures can show the parent of a compound that is named as a salt.

System: amphetamine-induced symptoms
Experiment: antagonism of amphetamine-induced symptoms (cage movement) in rats
Format: in vivo
Settings: test compound i.p., 1 hr., d-amphetamine sulfate 5 mg./kg. i.p. given 1 hr. after compound, rated one hour after amphetamine
Excerpt: The tranquilizing agents of the present invention are characterized by relief of such schizophrenic manifestations in humans as hallucinations, hostility, suspiciousness, emotional or social withdrawal, anxiety, agitation and tension. Standard procedures of detecting and comparing tranquilizing activity of compounds in this series and for which there is an excellent correlation with human efficacy is the antagonism of amphetamine-induced symptoms in rats test, as taught by A. Weissman, et al., J. Pharmacol. Exp. Ther., 151, 339 (1966) and by Quinton, et al., Nature, 200, 178 (1963).
The effects of the compounds of the present invention on prominent amphetamine-induced symptoms were studied in rats by a rating scale modeled after the one reported by Quinton and Halliwell and by Weissman. Groups of five rats were placed in a covered plastic cage measuring approximately 26 × 42 × 16 cm. After a brief period of acclimation in the cage, the rats in each group were treated intraperitoneally (i.p.) with the test compound. […] On the basis of dose-response data after amphetamine it was possible to determine the effective dose of the compound necessary to antagonize or block the characteristic amphetamine behavior of cage movement for fifty percent of the rats tested (ED50). […]

SMILES | ED50 (effective dose to antagonize or block the characteristic amphetamine behavior of cage movement for fifty percent of the rats tested) [mg/kg]
Fc1ccc(SCCCN2CCc3c(c4cc(F)ccc4n3-c3ccc(F)cc3)C2)cc1 [F F F 0, 8-Fluoro-5-(p-fluorophenyl)-2-[3-(p-fluorophenylthio)propyl]-1,2,3,4-tetrahydro-γ-carboline hydrochloride] | 32
[O-][S+](CCCN1CCc2c(c3cc(F)ccc3n2-c2ccc(F)cc2)C1)c1ccc(F)cc1 (centres unmarked) [F F F 1, 8-fluoro-5-(p-fluorophenyl)-2-[3-(p-fluorophenylsulfinyl)propyl]-1,2,3,4-tetrahydro-γ-carboline hydrochloride] | 10
